US11298344B2, “Composition for inhibiting sodium leak channel (NALCN), comprising n-benzhydryl quinuclidine derivatives” (Research & Business Foundation Sungkyunkwan University, priority 2018, dated 2022)

Experiments:
Type in all cases: cell-based
NALCN [1] = biological target: T1, NALCN (Rattus norvegicus, UniProt Q6Q760); experiment: Patch-clamp of HEK293T cells transfected with M3R and NALCN, CCh-induced inward current; settings: for compound concentration which decreases half of a NALCN current (rank order): CCh-induced current; for inhibitory effect on a CCh-induced NALCN current: FIG. 6; for activation of NALCN by CCh in the presence of the compound: compound present before CCh
T1 construct: expressed in transfected cells; host or cells: HEK293T
Experimental: (§1) HEK293T cells were cultured in a DMEM ([…]) medium containing 10% FBS and 1% antibiotics using an incubator having a condition of 37° C. and 5% CO2. NALCN and TRPC cDNAs were respectively constructed using a vector that expresses GFP under an independent promoter. Lipofectamine 2000, which is used as a transfection reagent, was mixed with each plasmid and the cells were treated with the mixture. Then, after 48 hours, expression was identified. In order to identify whether normal transfection with each plasmid occurred, only the cells in which GFP was expressed were selected.
(§2) The HEK293T cells were transfected with combinations of M3R and NALCN, M3R and GFP, and M3R and TRPCs.
Among the transfected HEK293T cells acquired in Experimental Method 2, cells expressing GFP were selected, and a patch pipette formed of a thin glass tube was inserted into a membrane surface. After setting −80 mV as a holding potential, a current was measured. Under the holding potential, treatment with carbachol (CCh) which is an activator of M3R was performed to identify a current induced by NALCN. An extracellular solution was treated with 50 μM of L703606, and change of current caused by CCh was identified. In addition, based on voltage-independent characteristics of NALCN, currents obtained by varying the voltage from −80 mV to +10 mV were measured, and change of current caused by the treatment with L703606 was recorded. All data were presented as mean±standard deviation calculated after treatment with an inhibitor relative to a control (** P<0.01).
HEK293T cells are non-neuronal cells commonly used for transfection of genes. Based on the report that a NALCN channel is activated by M3R in pancreatic beta cells MIN6 and HEK293 cells, M3R and NALCN plasmids that had been cloned from rat brain were co-transfected into HEK293T cells to identify whether L703606 inhibits a NALCN current activated by M3R.

NALCN [2] = biological target: T2, NALCN (Mus musculus, UniProt Q8BXR5); experiment: Patch-clamp of isolated midbrain dopaminergic neurons (background and NT-induced currents, membrane voltage)
T2 construct: from tissue; host or cells: acutely isolated dopaminergic neurons of mouse substantia nigra pars compacta (TH-GFP mice)
Experimental: In order to obtain midbrain dopaminergic neurons from mice, substantia nigra pars compacta within mouse midbrain in which GFP was expressed due to tyrosine hydroxylase (TH) promoter was cut into sections. In order to isolate tissue, the sections were subjected to treatment with a highly-concentrated glucose solution at 36.5° C. which contains papain (4 U ml-1) for 20 minutes or longer. The enzymatically-treated sections of substantia nigra pars compacta were washed with a highly-concentrated glucose solution, and then slowly agitated using Pasteur pipettes with various size holes so that the respective dopaminergic neurons were isolated. All animal experiments were conducted under approval of the Institutional Animal Care and Use Committee (IACUC) of Sungkyunkwan University School of Medicine.
Among the dopaminergic neurons isolated in Experimental Method 1, dopaminergic neurons expressing GFP were selected, and a patch pipette formed of thin glass tube was inserted into a membrane surface. After setting −60 mV as a holding potential, a current was measured. A background current was identified under the holding voltage. After treatment with NT, a current was identified. Then, additionally, an extracellular solution was treated with 10 μM of L703606, and change of current was identified. In addition, the above procedure was repeated by replacing sodium ion with N-methyl-D-glucamine (NMDG). After treating the extracellular solution with 0.5 μM of tetrodotoxin (TTX) and 30 μM of ZD7288 which are a voltage-gated sodium channel inhibitor and an HCN channel inhibitor, respectively, a voltage was measured. Additionally, change of voltage at the time of treatment with 10 μM of L703606 was identified. All data were presented as mean±standard deviation calculated at the time of treatment with the inhibitors and replacement of sodium ion, relative to a control. (* P<0.05, ** P<0.01, *** P<0.001).
In addition, it was possible to identify that at the time of replacing sodium with NMDG, the background current was close to 0 pA, and an inward current was not induced by the treatment with NT. From this, it can be seen that the background current is generated by sodium ions.

[3] = test system: transient receptor potential canonical (TRPC) 3, 4, 5, 6, or 7 channel; experiment: Patch-clamp of HEK293T cells transfected with M3R and a TRPC channel, CCh-induced inward current; settings: holding potential −60 mV, second CCh stimulus, Na+ and K+ removed, cesium added
Experimental: as §1, §2
From the above, it was possible to identify NALCN inhibitory effects of the NBQN derivatives. Furthermore, in the present example, it was intended to identify whether the NBQN derivatives have specific and exclusive inhibitory activity against NALCN. […]

[4] = holding potential −60 mV, 10 μM of L703606
[5] = holding potential −60 mV, 20 μM of PP1

T1 sequence (Q6Q760 whole entry): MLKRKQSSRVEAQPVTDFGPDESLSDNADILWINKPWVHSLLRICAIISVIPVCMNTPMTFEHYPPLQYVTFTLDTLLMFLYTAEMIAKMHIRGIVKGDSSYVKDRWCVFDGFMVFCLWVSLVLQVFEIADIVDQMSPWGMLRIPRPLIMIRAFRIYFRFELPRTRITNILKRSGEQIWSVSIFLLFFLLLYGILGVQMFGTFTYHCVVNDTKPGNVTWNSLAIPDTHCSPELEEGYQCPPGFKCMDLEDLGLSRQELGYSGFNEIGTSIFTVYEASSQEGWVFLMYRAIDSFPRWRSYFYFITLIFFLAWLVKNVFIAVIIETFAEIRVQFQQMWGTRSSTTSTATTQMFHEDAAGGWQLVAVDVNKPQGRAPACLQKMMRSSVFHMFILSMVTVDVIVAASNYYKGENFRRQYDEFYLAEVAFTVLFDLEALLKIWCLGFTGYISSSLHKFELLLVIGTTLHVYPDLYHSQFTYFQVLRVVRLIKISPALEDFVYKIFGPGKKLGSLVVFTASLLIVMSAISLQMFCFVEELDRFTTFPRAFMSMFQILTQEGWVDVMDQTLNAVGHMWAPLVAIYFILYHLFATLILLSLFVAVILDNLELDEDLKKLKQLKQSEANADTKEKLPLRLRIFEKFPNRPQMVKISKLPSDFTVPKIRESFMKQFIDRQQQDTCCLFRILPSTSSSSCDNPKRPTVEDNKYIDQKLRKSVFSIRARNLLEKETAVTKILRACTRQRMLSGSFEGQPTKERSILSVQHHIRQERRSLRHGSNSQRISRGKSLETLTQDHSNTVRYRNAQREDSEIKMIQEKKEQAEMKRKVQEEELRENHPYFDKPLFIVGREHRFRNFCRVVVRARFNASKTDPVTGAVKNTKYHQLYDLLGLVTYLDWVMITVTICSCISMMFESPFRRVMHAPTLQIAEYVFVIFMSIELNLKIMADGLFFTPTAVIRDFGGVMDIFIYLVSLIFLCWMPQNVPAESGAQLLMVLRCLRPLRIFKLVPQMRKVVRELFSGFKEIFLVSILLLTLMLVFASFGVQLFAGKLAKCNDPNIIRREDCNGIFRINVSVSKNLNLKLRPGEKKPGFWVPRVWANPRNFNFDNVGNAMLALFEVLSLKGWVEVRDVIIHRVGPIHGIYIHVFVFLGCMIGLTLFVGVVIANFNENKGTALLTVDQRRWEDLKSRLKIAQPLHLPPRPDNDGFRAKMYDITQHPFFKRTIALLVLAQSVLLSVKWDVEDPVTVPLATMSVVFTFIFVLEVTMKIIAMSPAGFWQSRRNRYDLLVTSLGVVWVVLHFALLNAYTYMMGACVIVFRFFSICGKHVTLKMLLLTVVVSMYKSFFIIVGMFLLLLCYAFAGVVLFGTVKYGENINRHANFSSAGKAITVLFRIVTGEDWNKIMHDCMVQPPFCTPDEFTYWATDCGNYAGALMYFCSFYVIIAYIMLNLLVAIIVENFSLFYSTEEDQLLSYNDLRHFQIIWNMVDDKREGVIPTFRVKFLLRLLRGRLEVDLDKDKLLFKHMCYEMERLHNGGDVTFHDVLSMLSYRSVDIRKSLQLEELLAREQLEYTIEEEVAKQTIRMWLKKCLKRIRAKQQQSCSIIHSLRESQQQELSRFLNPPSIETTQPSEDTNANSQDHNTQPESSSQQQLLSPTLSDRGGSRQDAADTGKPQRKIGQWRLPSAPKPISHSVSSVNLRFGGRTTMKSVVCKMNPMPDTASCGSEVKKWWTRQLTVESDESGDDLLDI

Compound: COc1ccccc1CNC1C2CCN(CC2)C1C(c1ccccc1)c1ccccc1 (centres unmarked) [CP96345, 2-(Diphenylmethyl)-N-(2-methoxybenzyl)quinuclidin-3-amine]
- compound concentration which decreases half of a NALCN current (rank order) (NALCN [1]; M3R-NALCN HEK293T cells): next highest inhibitory effects
- inhibitory effect on a CCh-induced NALCN current (NALCN [1]; M3R-NALCN HEK293T cells): inhibit a CCh-induced NALCN current in a similar fashion

Compound: COc1ccccc1CN[C@H]1CCCN[C@H]1c1ccccc1 [CP99994, (2S,3S)-N-[(2-methoxyphenyl)methyl]-2-phenylpiperidin-3-amine]
- inhibitory effect on a CCh-induced NALCN current (NALCN [1]; M3R-NALCN HEK293T cells): insignificant inhibitory effect

Compound: Ic1ccccc1CNC1C2CCN(CC2)C1C(c1ccccc1)c1ccccc1 (centres unmarked) [L703606, 2-(Diphenylmethyl)-N-(2-iodobenzyl)quinuclidin-3-amine]
- spontaneous activity voltage (NALCN [2]; 10 μM of L703606): completely inhibited
- background current (NALCN [2]; [4]): decreased
- inward current induced by NT (NALCN [2]; [4]): not induced
- membrane potential (NALCN [2]; spontaneous activity stopped by 0.5 μM TTX and 30 μM ZD7288, 10 μM of L703606): induced hyperpolarization of membrane potential
- inhibition at 50 µM (NALCN [1]; HEK-293T, cells that co-express M3R-NALCN, holding potential −80 mV, 50 μM of L703606): ≥ 90%
- CCh-induced inward current in the presence of PP1, after treatment with L703606 (NALCN [1]; M3R-NALCN HEK293T cells): returning to the background current again immediately
- compound concentration which decreases half of a NALCN current (rank order) (NALCN [1]; M3R-NALCN HEK293T cells): highest inhibitory effect
- inhibitory effect on a CCh-induced NALCN current (NALCN [1]; M3R-NALCN HEK293T cells): inhibit a CCh-induced NALCN current in a similar fashion
- activation of NALCN by CCh in the presence of the compound (NALCN [1]; M3R-NALCN HEK293T cells): not possible to observe activation of NALCN
- CCh-induced NALCN current where voltage is changed (NALCN [1]; voltage from −80 mV to +10 mV): decreased to a control level

Compound: COc1ccc(C(C)(C)C)cc1CN[C@H]1C2CCN(CC2)[C@H]1C(c1ccccc1)c1ccccc1 [Maropitant, (2S,3S)-2-(Diphenylmethyl)-N-[2-methoxy-5-(2-methyl-2-propanyl)benzyl]quinuclidin-3-amine]
- compound concentration which decreases half of a NALCN current (rank order) (NALCN [1]; M3R-NALCN HEK293T cells): next highest inhibitory effects
- inhibitory effect on a CCh-induced NALCN current (NALCN [1]; M3R-NALCN HEK293T cells): inhibit a CCh-induced NALCN current in a similar fashion

Compound: Cc1ccc(-c2nn(C(C)(C)C)c3ncnc(N)c23)cc1 [PP1]
- background current (NALCN [2]; [5]): little effect on the background current
- inward current induced by NT stimulus (NALCN [2]; [5]): remarkably decreased
- activation of NALCN by CCh in the presence of the compound (NALCN [1]; M3R-NALCN HEK293T cells): strong inward current induced by activation of NALCN
- inhibition of the CCh-induced inward current (NALCN [1]; cells that co-express M3R-NALCN, treatment with PP1): did not greatly inhibit

Compound: COc1ccc(CCCOC(Cn2ccnc2)c2ccc(OC)cc2)cc1 (centres unmarked) [SKF96365]
- CCh-induced inward current (TRPC current activated by M3R) [3]: not created at all
